Laboratory results as given in patent publication US12667559B2, “Dihydronaphthyridinone compound, and preparation method therefor and medical use thereof” (GENFLEET THERAPEUTICS (SHANGHAI) INC., priority 2020, dated 2026).
Where two headings read alike, the source gives them in different places.

System: U937 cells
Test: Inhibitory activity against TNF-α induced programmed cell necrosis (U937 cells, CellTiter-Glo)
Type: cell-based, human
Settings: U937 cells, human TNF-α and Q-VD-Oph induced necrosis, 48 hours, survival rate, read-out: U937 IC50

SMILES | IC50 (Homo sapiens, U-937, 48 h) [nM] | also measured
CC(c1ccc(F)cc1)n1cc(N2CCc3ncc(-c4cc(C(F)(F)F)c5c(N)ncnn45)cc3C2=O)cn1 (centres unmarked) [Z35] | 0.3 | 
CC(=O)Nc1cn2nc(-c3cnc4c(c3)C(=O)N(Cc3cc(F)ccc3OC3CCCC3)CC4)ccc2n1 [Z6, N-(6-(6-(2-(cyclopentyloxy)-5-fluorobenzyl)-5-oxo-5,6,7,8-tetrahydro-1,6-naphthyridin-3-yl)imidazol[1,2-b]pyridazin-2-yl)acetamide] | 0.4 | 
CC(=O)Nc1cn2nc(-c3cnc4c(c3)C(=O)N(C(C)c3ccccc3OC(F)(F)F)CC4)ccc2n1 (centres unmarked) [Z7, N-(6-(5-oxo-6-(1-(2-(trifluoromethoxy)phenyl)ethyl)-5,6,7,8-tetrahydro-1,6-naphthyridin-3-yl)imidazo[1,2-b]pyridazin-2-yl)acetamide] | 3.9 | 
O=C1c2cc(-c3ccncc3)cnc2CCN1Cc1cc(F)cc(F)c1OC1CCOCC1 [Z11, 6-(3,5-difluoro-2-((tetrahydro-2H-pyran-4-yl)oxy)benzyl)-3-(pyridin-4-yl)-7,8-dihydro-1,6-naphthyridin-5(6H)-one] | 31.2 | 
Nc1nc2cc(-c3cnc4c(c3)C(=O)N(Cc3cc(F)ccc3OC(F)(F)F)CC4)ccn2n1 [Z102, 3-(2-amino-[1,2,4]triazolo[1,5-a]pyridyl-7-yl)-6-(5-fluoro-2-(trifluoromethoxy)benzyl)-7,8-dihydro-1,6-naphthyridin-5(6H)-one] | 21.1 | 
CC(=O)Nc1cn2nc(-c3cnc4c(c3)C(=O)N(Cc3cccc(OC(F)(F)F)c3)CC4)ccc2n1 [Z8, N-(6-(5-oxo-6-(3-(trifluoromethoxy)benzyl)-5,6,7,8-tetrahydro-1,6-naphthyridin-3-yl)imidazo[1,2-b]pyridazin-2-yl)acetamide] | 40.3 | 
Nc1ncnn2c(-c3cnc4c(c3)C(=O)N(C3CN(C(=O)c5ccc(F)cc5)CC3F)CC4)cc(C(F)(F)F)c12 (stereo not drawn) [Z36, cis-3-(4-amino-5-(trifluoromethyl)pyrrolo[2,1-f][1,2,4]triazin-7-yl)-6-(4-fluoro-1-(4-fluorobenzoyl)pyrrolidin-3-yl)-7,8-dihydro-1,6-naphthyridin-5(6H)-one] | 45.3 | 
Nc1nc2cc(-c3cnc4c(c3)C(=O)N(Cc3cc(F)cc(F)c3OCC3CC3)CC4)ccn2n1 [Z67] | 0.5 | 
C[C@@](O)(C(=O)N1C[C@@H](F)[C@@H](N2CCc3ncc(-c4ccc5c(N)ncnn45)cc3C2=O)C1)C(F)(F)F [Z31-1] | 7.4 | 
CC(=O)Nc1cn2nc(-c3cnc4c(c3)C(=O)N(Cc3ncccc3OC3CCOCC3)CC4)ccc2n1 [Z28, N-(6-(5-oxo-6-((3-((tetrahydro-2H-pyran-4-yl)oxy)pyridyl-2-yl)methyl)-5,6,7,8-tetrahydro-1,6-naphthyridin-3-yl)imidazo[1,2-b]pyridazin-2-yl)acetamide] |  | IC50: 12.7 nM
C[C@H](c1ccc(F)cc1)n1cc(N2CCc3ncc(-c4cc(C(F)(F)F)c5c(N)ncnn45)cc3C2=O)cn1 (single isomer, unassigned) [Z35-1] | 0.3 | 
CNc1nc2cc(-c3cnc4c(c3)C(=O)N(Cc3cc(OC(F)(F)F)ccc3F)CC4)ccn2n1 [Z59, 6-(2-fluoro-5-(trifluoromethoxy)benzyl)-3-(2-(methylamino)-[1,2,4]triazolo[1,5-a]pyridyl-7-yl)-7,8-dihydro-1,6-naphthyridin-5(6H)-one] |  | IC50 (U-937): 12 nM
CC(c1cc(F)ccc1OC(F)(F)F)N1CCc2ncc(-c3ccn4nc(N)nc4c3)cc2C1=O (centres unmarked) [Z55, 3-(2-amino-[1,2,4]triazolo[1,5-a]pyridyl-7-yl)-6-(1-(5-fluoro-2-(trifluoromethoxy)phenyl)ethyl)-7,8-dihydro-1,6-naphthyridin-5(6H)-one] |  | IC50 (U-937): 8 nM
Nc1nc2cc(-c3cnc4c(c3)C(=O)N(Cc3cc(C(F)(F)F)ccc3F)CC4)ccn2n1 [Z72] | 82 | 
CC(=O)Nc1cn2nc(-c3cnc4c(c3)C(=O)N(Cc3cc(OC(F)(F)F)ccc3F)CC4)ccc2n1 [Z9, N-(6-(6-(2-fluoro-5-(trifluoromethoxy)benzyl)-5-oxo-5,6,7,8-tetrahydro-1,6-naphthyridin-3-yl)imidazo[1,2-b]pyridazin-2-yl)acetamide] | 10.4 | 
CC(c1cc(F)ccc1-c1cnn(C)c1)N1CCc2ncc(-c3ccn4nc(N)nc4c3)cc2C1=O (centres unmarked) [Z80, 3-(2-amino-[1,2,4]triazolo[1,5-a]pyridyl-7-yl)-6-(1-(5-fluoro-2-(1-methyl-1H-pyrazol-4-yl)phenyl)ethyl)-7,8-dihydro-1,6-naphthyridin-5(6H)-one] |  | IC50: 19.8 nM
C[C@H](c1ccccc1OC(F)(F)F)N1CCc2ncc(-c3ccn4nc(N)nc4c3)cc2C1=O [Z46-2, (R)-3-(2-amino-[1,2,4]triazolo[1,5-a]pyridyl-7-yl)-6-(1-(2-(trifluoromethoxy)phenyl)ethyl)-7,8-dihydro-1,6-naphthyridin-5(6H)-one] | 986 | 
Nc1nc2cc(-c3cnc4c(c3)C(=O)N(Cc3ncccc3OCC3CC3)CC4)ccn2n1 [Z61, 3-(2-amino-[1,2,4]triazolo[1,5-a]pyridyl-7-yl)-6-((3-(cyclopropylmethoxy)pyridyl-2-yl)methyl)-7,8-dihydro-1,6-naphthyridin-5(6H)-one] |  | IC50 (U-937): 14 nM
CC(c1ccc(F)cc1)n1cc(N2CCc3ncc(-c4ccn5nc(N)nc5c4)cc3C2=O)cn1 (centres unmarked) [Z64] |  | IC50: 2 nM
O=C(CO)Nc1cn2nc(-c3cnc4c(c3)C(=O)N(Cc3cc(F)cc(F)c3OC3CCOCC3)CC4)ccc2n1 [Z39, N-(6-(6-(3,5-difluoro-2-((tetrahydro-2H-pyran-4-yl)oxy)benzyl)-5-oxo-5,6,7,8-tetrahydro-1,6-naphthyridin-3-yl)imidazo[1,2-b]pyridazin-2-yl)-2-hydroxyacetamide] | 0.9 | 
O=C(Nc1cn2nc(-c3cnc4c(c3)C(=O)N(Cc3cc(F)cc(F)c3OC3CCOCC3)CC4)ccc2n1)C1CC1 [Z37, N-(6-(6-(3,5-difluoro-2-((tetrahydro-2H-pyran-4-yl)oxy)benzyl)-5-oxo-5,6,7,8-tetrahydro-1,6-naphthyridin-3-yl)imidazo[1,2-b]pyridazin-2-yl)cyclopropanecarboxamide] | 0.5 | 
CC(c1ccccc1OC(F)(F)F)N1CCc2ncc(-c3ccn4nc(N)nc4c3)cc2C1=O (centres unmarked) [Z46, 3-(2-amino-[1,2,4]triazolo[1,5-a]pyridyl-7-yl)-6-(1-(2-(trifluoromethoxy)phenyl)ethyl)-7,8-dihydro-1,6-naphthyridin-5(6H)-one] |  | IC50 (U-937): 7 nM
Nc1nc2cc(-c3cnc4c(c3)C(=O)N(Cc3cccc(OC(F)(F)F)c3)CC4)ccn2n1 [Z50, 3-(2-amino-[1,2,4]triazolo[1,5-a]pyridyl-7-yl)-6-(3-(trifluoromethoxy)benzyl)-7,8-dihydro-1,6-naphthyridin-5(6H)-one] |  | IC50 (U-937): 40 nM
Nc1nc2cc(-c3cnc4c(c3)C(=O)N(Cc3cc(F)ccc3CN3CCOCC3)CC4)ccn2n1 [Z54, 3-(2-amino-[1,2,4]triazolo[1,5-a]pyridyl-7-yl)-6-(5-fluoro-2-(morpholinomethyl)benzyl)-7,8-dihydro-1,6-naphthyridin-5(6H)-one] | 12 | 
Cc1cc(-c2cnc3c(c2)C(=O)N([C@@H]2CN(C(=O)[C@@](C)(O)C(F)(F)F)C[C@@H]2F)CC3)n2ncnc(N)c12 (single isomer, unassigned) [Z30-2] |  | IC50: 3.4 nM
Nc1nc2cc(-c3cnc4c(c3)C(=O)N(Cc3cc(OC(F)(F)F)ccc3F)CC4)ccc2o1 [Z17, 3-(2-aminobenzo[d]oxazol-5-yl)-6-(2-fluoro-5-(trifluoromethoxy)benzyl)-7,8-dihydro-1,6-naphthyridin-5(6H)-one] |  | IC50 (U-937): 57.5 nM
